Test results from patent US9433621B2, “Substituted pyridine and pyrimidine derivatives and their use in treating viral infections” (Merck Sharp & Dohme Corp., priority 2010, dated 2016).
Read-outs that look alike come from different tables or passages of the source.

System: HCV replicon
Experiment: Cell-Based HCV Replicon Assay
Conditions: Hepatitis C virus, HCV Replicon assay, Table VI, read-out: EC90
How it was run: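 Replicon cells, 5000/well, treated 3 days with 10 serial 2-fold dilutions (top 25 μM to 1 μM) in 0.5% DMSO, 10% FBS. Replicon RNA measured by multiplex Taqman RT-PCR (NS5B amplicon, GAPDH control); EC50/EC90 = concentration giving ΔCT of 1/3.2 over baseline from sigmoid fit.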

SMILES | EC90 (EC90 range) | EC90 (EC90 given as numeric bound)
Cc1nc(NCC(F)(F)C(F)(F)C(F)(F)F)nc(N[C@@H]2C[C@H](C3(O)CCCC3)[C@@H](O)[C@H]2O)c1-c1nc2c(C)nccc2s1 [Example 5113] | 5000 to 25000 nM | 
Cc1nc(NCC(F)(F)C(F)(F)F)nc(N[C@@H]2C[C@H](C3(O)CCCC3)[C@@H](O)[C@H]2O)c1-c1nc2c(C)nccc2s1 [Example 5114] | < 500 nM | 
Cc1nc(NCC2(O)CCOC2)nc(N[C@@H]2C[C@H](C3(O)CCCC3)[C@@H](O)[C@H]2O)c1-c1nc2c(C)nccc2s1 (some centres unmarked) [Example 5115] | < 500 nM | 
Cc1nc(NCC(F)(F)F)nc(NC2(CO)CCCC2)c1-c1nc2c(C)nccc2s1 [Example 5116] | < 500 nM | 
Cc1nc(NCc2c(F)cccc2F)nc(NC2(CO)CCCC2)c1-c1nc2c(C)nccc2s1 [Example 5117] | < 500 nM | 
Cc1nc(NCC2(O)CC2)nc(N[C@@H]2C[C@H](CS(=O)(=O)c3cc(F)cc(F)c3)[C@@H](O)[C@H]2O)c1-c1nc2c(C)nccc2s1 [Example 5118] | < 500 nM | 
Cc1nc(NCC2(O)CCCC2)nc(N[C@@H]2C[C@H](CS(=O)(=O)c3cc(F)cc(F)c3)[C@@H](O)[C@H]2O)c1-c1nc2c(C)nccc2s1 [Example 5119] | < 500 nM | 
Cc1nc(NCCC2(O)CCCC2)nc(N[C@@H]2C[C@H](CS(=O)(=O)c3cc(F)cc(F)c3)[C@@H](O)[C@H]2O)c1-c1nc2c(C)nccc2s1 [Example 5120] | < 500 nM | 
Cc1nc(NC2(C3CC3)CC2)nc(NC2(CO)CCCC2)c1-c1nc2c(C)nccc2s1 [Example 5121] | < 500 nM | 
Cc1nc(NC2(C3CC3)CC2)nc(N[C@@H]2C[C@H]([C@@H](O)C(C)C)[C@@H](O)[C@H]2O)c1-c1nc2c(C)nccc2s1 [Example 5122] | < 500 nM | 
COCCNc1nc(C)c(-c2nc3c(C)nccc3s2)c(N[C@@H]2C[C@H]([C@@H](O)C(C)C)[C@@H](O)[C@H]2O)n1 [Example 5123] | < 500 nM | 
Cc1nc(N)nc(NC2(CO)CCCC2)c1-c1nc2c(C3CC3)nccc2s1 [Example 5124] | < 500 nM | 
Cc1nc(N)nc(N[C@@H]2C[C@H]([C@@H](O)C(C)C)[C@@H](O)[C@H]2O)c1-c1nc2c(C)nccc2s1 [Example 5125] | < 500 nM | 
COCCNc1nc(C)c(-c2nc3c(C4CC4)nccc3s2)c(NC2(CO)CCCC2)n1 [Example 5126] | < 500 nM | 
Cc1nc(NCC2(O)CCCC2)nc(NC2(CO)CCCC2)c1-c1nc2c(C3CC3)nccc2s1 [Example 5127] | < 500 nM | 
Cc1nc(N[C@H](C)c2c(F)c(F)c(C)c(F)c2F)nc(NC2(CO)CCCC2)c1-c1nc2c(C3CC3)nccc2s1 [Example 5128] |  | > 1000 nM
Cc1nc(NCC(F)(F)C(F)(F)F)nc(NC2(CO)CCCC2)c1-c1nc2c(C3CC3)nccc2s1 [Example 5129] | < 500 nM | 
Cc1nc(N)nc(NC2(CO)CCCC2)c1-c1nc2c(C)nccc2s1 [Example 5130] | < 500 nM | 
COCCNc1nc(C)c(-c2nc3c(C)nccc3s2)c(NC2(CO)CCCC2)n1 [Example 5131] | < 500 nM | 
Cc1nc(NCC2CC2)nc(NC2(CO)CCCC2)c1-c1nc2c(C)nccc2s1 [Example 5132] | < 500 nM | 
Cc1nc(NCC2(O)CCCC2)nc(NC2(CO)CCCC2)c1-c1nc2c(C)nccc2s1 [Example 5133] | < 500 nM | 

SMILES | EC90 (EC90 range) | EC90 (EC90 given as numeric bound)
Cc1nc(NCC(F)(F)C(F)(F)F)nc(NC2(CO)CC2)c1-c1nc2c(C)nccc2s1 [Example 5134] | < 500 nM | 
CO[C@@H](CNc1nc(C)c(-c2nc3c(C)nccc3s2)c(N[C@@H]2C[C@H](C(C)(C)O)[C@@H](O)[C@H]2O)n1)c1ccccc1 [Example 5135] | < 500 nM | 
CO[C@H]1CCCC[C@@H]1Nc1nc(C)c(-c2nc3c(C)nccc3s2)c(N[C@@H]2C[C@H](CO)[C@@H](O)[C@H]2O)n1 [Example 5136] | < 500 nM | 
CO[C@H]1CCCC[C@@H]1Nc1nc(C)c(-c2nc3c(C)nccc3s2)c(N[C@@H]2C[C@H](C(C)(C)O)[C@@H](O)[C@H]2O)n1 [Example 5137] | 500 to 5000 nM | 
CO[C@H]1CCCC[C@@H]1Nc1nc(C)c(-c2nc3c(C4CC4)nccc3s2)c(N[C@@H]2C[C@H](CO)[C@@H](O)[C@H]2O)n1 [Example 5138] | < 500 nM | 
CO[C@@H]1CCCC[C@H]1Nc1nc(C)c(-c2nc3c(C)nccc3s2)c(N[C@@H]2C[C@H](CO)[C@@H](O)[C@H]2O)n1 [Example 5139] | < 500 nM | 
CO[C@@H]1CCCC[C@H]1Nc1nc(C)c(-c2nc3c(C)nccc3s2)c(N[C@@H]2C[C@H](C(C)(C)O)[C@@H](O)[C@H]2O)n1 [Example 5140] | < 500 nM | 
CO[C@@H]1CCCC[C@H]1Nc1nc(C)c(-c2nc3c(C4CC4)nccc3s2)c(N[C@@H]2C[C@H](CO)[C@@H](O)[C@H]2O)n1 [Example 5141] | < 500 nM | 
CO[C@@H]1CCC[C@@H]1Nc1nc(C)c(-c2nc3c(C4CC4)nccc3s2)c(N[C@@H]2C[C@H](CO)[C@@H](O)[C@H]2O)n1 [Example 5142] | < 500 nM | 
CO[C@@H]1CCC[C@@H]1Nc1nc(C)c(-c2nc3c(C)nccc3s2)c(N[C@@H]2C[C@H](CO)[C@@H](O)[C@H]2O)n1 [Example 5143] | < 500 nM | 
CO[C@@H]1CCC[C@@H]1Nc1nc(C)c(-c2nc3c(C)nccc3s2)c(N[C@@H]2C[C@H](C(C)(C)O)[C@@H](O)[C@H]2O)n1 [Example 5144] | 500 to 5000 nM | 
CO[C@@H]1CCC[C@@H]1Nc1nc(C)c(-c2nc3c(C)nccc3s2)c(N[C@@H]2C[C@H](C(C)(C)Cl)[C@@H](O)[C@H]2O)n1 [Example 5145] | < 500 nM | 
CO[C@H]1CCC[C@@H]1Nc1nc(C)c(-c2nc3c(C)nccc3s2)c(N[C@@H]2C[C@H](CO)[C@@H](O)[C@H]2O)n1 [Example 5146] | < 500 nM | 
CO[C@H]1CCC[C@@H]1Nc1nc(C)c(-c2nc3c(C4CC4)nccc3s2)c(N[C@@H]2C[C@H](CO)[C@@H](O)[C@H]2O)n1 [Example 5147] | < 500 nM | 
Cc1nc(N[C@@H]2CCCC[C@H]2O)nc(N[C@@H]2C[C@H](CO)[C@@H](O)[C@H]2O)c1-c1nc2c(C)nccc2s1 [Example 5148] | < 500 nM | 
Cc1nc(N[C@H]2CCC[C@H]2O)nc(N[C@@H]2C[C@H](CO)[C@@H](O)[C@H]2O)c1-c1nc2c(C)nccc2s1 [Example 5149] | < 500 nM | 
Cc1nc(N[C@H]2CCC[C@@H]2O)nc(N[C@@H]2C[C@H](CO)[C@@H](O)[C@H]2O)c1-c1nc2c(C)nccc2s1 [Example 5150] | < 500 nM | 
Cc1nc(N)nc(N[C@H]2CCC[C@@H]2O)c1-c1nc2c(C)nccc2s1 [Example 5151] | < 500 nM | 
Cc1nc(NC2(C)CCC2)nc(N[C@@H]2C[C@H](CS(C)(=O)=O)[C@@H](O)[C@H]2O)c1-c1nc2c(C)nccc2s1 [Example 5152] | < 500 nM | 
Cc1nc(NC2(C)CCC2)nc(N[C@@H]2C[C@H](C(C)(C)O)[C@@H](O)[C@H]2O)c1-c1nc2c(C)nccc2s1 [Example 5153] | < 500 nM | 
Cc1nc(NCC(F)(F)F)nc(N[C@H]2CCC[C@@H]2O)c1-c1nc2c(C)nccc2s1 [Example 5154] | < 500 nM | 

SMILES | EC90 (EC90 range) | EC90 (EC90 given as numeric bound)
COCCNc1nc(C)c(-c2nc3c(C)nccc3s2)c(N[C@H]2CCC[C@@H]2O)n1 [Example 5155] | < 500 nM | 
Cc1nc(NCC2CC2)nc(N[C@H]2CCC[C@@H]2O)c1-c1nc2c(C)nccc2s1 [Example 5156] | < 500 nM | 
Cc1nc(NCC2CC2)nc(N[C@H]2C=C[C@@H](CO)C2)c1-c1nc2c(C)nccc2s1 [Example 5157] | < 500 nM | 
Cc1nc(NCC2(O)CCCC2)nc(N[C@H]2C=C[C@@H](CO)C2)c1-c1nc2c(C)nccc2s1 [Example 5158] | < 500 nM | 
Cc1nc(NCC2(O)CCCC2)nc(N[C@H]2CC[C@@H](CO)C2)c1-c1nc2c(C)nccc2s1 [Example 5159] | < 500 nM | 
Cc1nc(N[C@@H](CO)Cc2ccccc2)nc(N[C@@H]2C[C@H](C(C)(C)O)[C@@H](O)[C@H]2O)c1-c1nc2c(C)nccc2s1 [Example 5160] | 500 to 5000 nM | 
COCCCNc1nc(C)c(-c2nc3c(C)nccc3s2)c(N[C@@H]2C[C@H](C(C)(C)O)[C@@H](O)[C@H]2O)n1 [Example 5161] | < 500 nM | 
Cc1nc(N[C@@H](CO)CC(C)C)nc(N[C@@H]2C[C@H](C(C)(C)O)[C@@H](O)[C@H]2O)c1-c1nc2c(C)nccc2s1 [Example 5162] | < 500 nM | 
Cc1nc(NC(C)CCCC(C)(C)O)nc(N[C@@H]2C[C@H](C(C)(C)O)[C@@H](O)[C@H]2O)c1-c1nc2c(C)nccc2s1 (some centres unmarked) [Example 5163] | < 500 nM | 
Cc1nc(NCC(F)(F)C(F)(F)C(F)(F)F)nc(N[C@H]2C=C[C@@H](CO)C2)c1-c1nc2c(C)nccc2s1 [Example 5164] | < 500 nM | 
Cc1nc(NCC(F)(F)C(F)(F)F)nc(N[C@H]2C=C[C@@H](CO)C2)c1-c1nc2c(C)nccc2s1 [Example 5165] | < 500 nM | 
Cc1nc(NCC(F)(F)C(F)(F)C(F)(F)F)nc(N[C@H]2CC[C@@H](CO)C2)c1-c1nc2c(C)nccc2s1 [Example 5166] | < 500 nM | 
Cc1nc(N)nc(N[C@H]2C=C[C@@H](CO)C2)c1-c1nc2c(C)nccc2s1 [Example 5167] | < 500 nM | 
Cc1nc(NCC(F)(F)C(F)(F)F)nc(N[C@H]2CC[C@@H](CO)C2)c1-c1nc2c(C)nccc2s1 [Example 5168] | < 500 nM | 
Cc1nc(N[C@H](C)c2c(F)c(F)c(C)c(F)c2F)nc(N[C@H]2C=C[C@@H](CO)C2)c1-c1nc2c(C)nccc2s1 [Example 5169] | < 500 nM | 
Cc1nc(NCC2(O)CC2)nc(N[C@H]2C=C[C@@H](CO)C2)c1-c1nc2c(C)nccc2s1 [Example 5170] | < 500 nM | 
CO[C@H](C)CN(C)c1nc(C)c(-c2nc3c(C)nccc3s2)c(N[C@@H]2C[C@H](C(C)(C)O)[C@@H](O)[C@H]2O)n1 [Example 5171] |  | > 1000 nM
Cc1nc(N[C@H](C)C2CC2)nc(N[C@@H]2C[C@H](C(C)(F)F)[C@@H](O)[C@H]2O)c1-c1nc2c(C3CC3)nccc2s1 [Example 5172] | < 500 nM | 
Cc1nc(NC2CC2)nc(N[C@@H]2C[C@H](C(C)(F)F)[C@@H](O)[C@H]2O)c1-c1nc2c(C3CC3)nccc2s1 [Example 5173] | < 500 nM | 
CCCNc1nc(C)c(-c2nc3c(C4CC4)nccc3s2)c(N[C@@H]2C[C@H](C(C)(F)F)[C@@H](O)[C@H]2O)n1 [Example 5174] | < 500 nM | 
